The source of these data is patent US9174998B2, “(6S,9aS)-N-benzyl-6-[(4-hydroxyphenyl)methyl]-4,7-dioxo-8-({6-[3-(piperazin-1-yl)azetidin-1-yl]pyridin-2-yl}methyl)-2-(prop-2-en-1-yl)-octahydro-1H-pyrazino[2,1-c][1,2,4]triazine-1-carboxamide compound” (Eisai R&D Management Co., Ltd., priority 2013, dated 2015).

What is called solubility is the concentration that dissolves in the medium under given conditions.

Converted amounts (≈) assume the structure as drawn. Read-outs that look alike come from different tables or passages of the source.

Data set [1] in a line: Evaluation of solubility (DMSO stock into PBS, HPLC-UV). The note with it: Dulbecco's phosphate-buffered saline pH 7, room temperature, about 15 minutes shaking, values greater than 200 μM regarded as 200 μM, read-out: Test Example 3 solubility. It counts as physicochemical. Here is the method:
To 0.25 mL of a test solution a mentioned below was added 2.5 μL of a DMSO solution having a compound concentration of 20 mM. The resultant solution was shaken at room temperature for about 15 minutes (the conditions for the shaking are mentioned below). Subsequently, a supernatant was collected by a suction filtration under a reduced pressure. A DMSO solution having a compound concentration of 200 μM was used as a standard solution, and the concentration of a compound in a filtrate which was quantified by a HPLC-UV method was employed as a solubility (rounded off to the whole number). In this evaluation, since a value 200 μM became the upper limit operationally, all of quantification values greater than 200 μM were regarded as 200 μM.
Test solution: GIBCO (registered trade name) Dulbecco's phosphate-buffered saline (pH 7, Life Technologies Corporation)
Conditions for shaking: a microplate shaker N-704 (Nissinrika Corporation), speed 6

Data set [2] is described as follows: PAMPA test (parallel artificial membrane permeability assay). The format is in vitro ADME. The note with it: phosphate buffer pH 6.8, about 200 μM, about 5 hours, room temperature, read-out: Test Example 4 membrane permeation coefficient Pe. Here is the method:
A test solution (see below) was stirred while shaking at room temperature for about 5 hours using a 96-well PAMPA plate (BD Biosciences) in which a lipid had been precoated onto a polyvinylidene fluoride (PVDF) film to evaluate the membrane permeation coefficient Pe (cm/s) of each compound dissolved in the test solution (concentration: about 200 μM) upon the transport of the compound from a donor side to an acceptor side through a lipid membrane. The Pe value was calculated in accordance with equations 1 and 2, and the concentration of the compound on the donor side and the acceptor side was measured by a HPLC-UV method. In 0.3 mL of the test solution on the donor side is contained about 1% (v/v) of DMSO, since 3 μL of a DMSO solution containing the compound at a concentration of 20 mM was added to the test solution.
Test solution: a phosphate buffer solution having a pH value of 6.8 (90 mM of phosphate, 48 mM of NaCl, 5.4 mM of KCl)
Conditions for stirring: a multishaker MS-300 (AS ONE Corporation), 350 rpm
[formula] CD(t): compound concentration in donor well at time t CA(t): compound concentration in acceptor well at time t VD: donor well volume (0.3 mL) VA: acceptor well volume (0.2 mL) A: filter area (0.3 cm^2)

Data set [3] has as its system Wnt signal. The data set can be described thus: Detection of Wnt signal (TOPglow luciferase reporter, LiCl-stimulated). It counts as cell-based. The note with it: Homo sapiens; HEK293 clone carrying pNeo-TOP reporter; LiCl stimulation; luciferase luminescence; read-out: Test Example 1 IC50 (concentration required for inhibiting the Wnt signal activity by 50%). Here is the method: pcDNA3.1(+) (invitrogen) was cleaved with restriction enzymes BglII and NotI, and an adapter BEHKS having a sequence shown below (containing restriction enzyme sites BglII, EcoRI, HindIII, KpnI, SacI and NotI) was inserted thereinto, thereby producing a plasmid pNeo-HKS.
Subsequently, a fragment having a length of about 2700 bp (containing a Wnt-responsive sequence and a luciferase gene), which was prepared by cleaving from a TOPglow plasmid contained in a TOPglow/FOPglow TCF Reporter Kit (upstate Catalog#17-366) with restriction enzymes HindIII and KpnI, was inserted between HindIII and KpnI in pNeo-HKS, thereby producing a plasmid pNeo-TOP. The plasmid pNeo-TOP was introduced into human fetus-derived renal cell strain HEK293, then a compound was selected using G418, and then a cell clone strain was established by a limiting dilution method. The cell clone strain was subjected to a Wnt signal detection test.
The cell clone strain was subcultured in a D-MEM glucose-rich culture medium (Wako Pure Chemical Industries, Ltd.) containing 10% FBS, and cells in a growth phase were used in the test. Cells were collected using trypsin-EDTA, the number of the cells was counted, and then the cells were suspended in a D-MEM glucose-rich culture medium containing 10% FBS so that the number of cells became 2×10^5 cells/mL. The cell suspension was added to a 96-well cell culture plate (Greiner Bio-One Co., Ltd., product number: 655083) in an amount of 0.1 mL/well and then cultured overnight in a 5% CO2 incubator (37° C.). After the culturing, a substance to be tested, which was dissolved in DMSO, was diluted with a D-MEM glucose-rich culture medium containing 10% of FBS and 80 mM of LiCl to produce a sample solution. The sample solution (0.1 mL) was added to each well and then cultured in a 5% CO2 incubator (37° C.) […]. Six hours after the addition of the sample solution, a supernatant was removed from each well, and then 50 μL of Bright-Glo™ Luciferase substrate (Promega, product number: E2620) was added thereto. The plate was put on a plate mixer for several seconds, and then the emission of light from each well was measured using a EnVision™ Multilabel plate reader (PerkinElmer Co., Ltd.). The Wnt signal activation rate (%) of each well was determined, and a concentration (IC50) which is required for inhibiting the Wnt signal activity of a substance of interest by 50% was calculated, wherein the luminosity of a well to which a sample solution was not added and LiCl was added was defined as a 100% Wnt signal activity and the luminosity of a well to which either of a sample solution or LiCl was not added was defined as a 0% Wnt signal activity.
(In general: In a reporter assay the amount or activity of a reporter protein is the signal.)

A short description of data set [4]: Evaluation of metabolic stability. It counts as in vitro ADME, human. The note with it: 0.2 mg/mL HLM, 0.1 μM test substance, 15 minutes at 37° C., with vs without NADPH production. Here is the method:
A test substance was dissolved in DMSO so that the concentration of the resultant solution became 20 mM, and the solution was diluted with DMSO so that the concentration of the resultant solution became 1 mM. The metabolic stability of the test substance was evaluated using a human liver microsome (HLM) in which human liver was pooled. An assay buffer solution contained 0.2 mg/mL of HLM, a 0.1 M of phosphate potassium buffer solution (pH 7.4), 0.1 mM of EDTA, 0.33 mM of NADP+, 8 mM of glucose-6-phosphate, 0.1 U/mL of glucose-6-phosphate dehydrogenase, 6 mM of MgCl2, 0.1 μM of a test substance (final concentration in DMSO: 0.01%) in 0.15 mL of the final incubation volume. Fifteen minutes after the initiation of the reaction at 37° C., 0.15 mL of a acetonitrile/methanol mixed solution (7:3, by volume) was added to the solution to terminate the reaction. After centrifugation, the resultant supernatant was analyzed by LC-MSMS, peak areas were compared under the presence or absence of the production of NADPH, and the residual ratio of the test substance was calculated.

[5] abbreviates: aqueous buffer, kinetic from dmso stock.

Take `C=CCN1CC(=O)N2[C@@H](Cc3ccc(O)cc3)C(=O)N(Cc3cccc(N4CC(N5CCN(CC)CC5)C4)n3)C[C@@H]2N1C(=O)NCc1ccccc1` [Example 2, (6S,9aS)-N-Benzyl-8-((6-(3-(4-ethylpiperazin-1-yl)azetidin-1-yl)pyridin-2-yl)methyl)-6-((4-hydroxyphenyl)methyl)-4,7-dioxo-2-(prop-2-en-1-yl)-octahydro-1H-pyrazino[2,1-c][1,2,4]triazine-1-carboxamide]: in data set [1], the solubility is 200 µM (≈ 142 µg/mL). Also, the Papp in data set [2] stood at 1.32 ×10⁻⁶ cm/s. For the same compound, in data set [3], the IC50 stood at 290 nM. In data set [4], the “Test Example 2 residual ratio of the test substance” value (“Test Example 2 residual ratio” for short) stood at 58%.

Regarding `C=CCN1CC(=O)N2[C@@H](Cc3c(F)cc(O)cc3F)C(=O)N(Cc3cccc(N4CC(N5CCN(C)[C@@H](C)C5)C4)n3)C[C@@H]2N1C(=O)NCc1ccccc1` [Example 16, (6S,9aS)-N-Benzyl-6-((2,6-difluoro-4-hydroxyphenyl)methyl)-8-((6-(3-((3S)-3,4-dimethylpiperazin-1-yl)azetidin-1-yl)pyridin-2-yl)methyl)-4,7-dioxo-2-(prop-2-en-1-yl)-octahydro-1H-pyrazino[2,1-c][1,2,4]triazine-1-carboxamide], the solubility in data set [1] (setting [5]) was found to be 197 µM (≈ 147 µg/mL). In addition, in data set [2], the Papp came to 0.51 ×10⁻⁶ cm/s. Further, in data set [3], the IC50 was 220 nM. Also, the “Test Example 2 residual ratio” value in data set [4] was 63%.

With `C=CCN1CC(=O)N2[C@@H](Cc3ccc(O)cc3)C(=O)N(Cc3cccnc3N3CCC(N4CCCC4)CC3)C[C@@H]2N1C(=O)NCc1ccccc1` [Comparative Example 1, (6S,9aS)-N-Benzyl-6-(4-hydroxybenzyl)-4,7-dioxo-8-((2-(4-(pyrrolidin-1-yl)piperidin-1-yl)pyridin-3-yl)methyl)-2-(prop-2-en-1-yl)-octahydro-1H-pyrazino[2,1-c][1,2,4]triazine-1-carboxamide, reference compound], the solubility in data set [1] (setting [5]) is 97 µM (≈ 67.2 µg/mL). In addition, the Papp in data set [2] was 1.34 ×10⁻⁶ cm/s. In addition, the IC50 in data set [3] came out at 23200 nM. In addition, in data set [4], the “Test Example 2 residual ratio” value was determined as 52.9%.

For `C=CCN1CC(=O)N2[C@@H](Cc3ccc(O)cc3)C(=O)N(Cc3cccc(N4CC(N5CCN(C)[C@H](C)C5)C4)n3)C[C@@H]2N1C(=O)NCc1ccccc1` [Example 28, (6S,9aS)-N-Benzyl-8-((6-(3-((3R)-3,4-dimethylpiperazin-1-yl)azetidin-1-yl)pyridin-2-yl)methyl)-6-((4-hydroxyphenyl)methyl)-4,7-dioxo-2-(prop-2-en-1-yl)-octahydro-1H-pyrazino[2,1-c][1,2,4]triazine-1-carboxamide], the solubility in data set [1] (setting [5]) came out at 198 µM (≈ 140 µg/mL). Besides, in data set [2], the Papp turned out to be 0.95 ×10⁻⁶ cm/s. Besides, in data set [3], the IC50 was determined as 380 nM. In data set [4], the “Test Example 2 residual ratio” value is 55%.

As for `C=CCN1CC(=O)N2[C@@H](Cc3ccc(O)cc3F)C(=O)N(Cc3cccc(N4CC(N5CCN(C)[C@H](C)C5)C4)n3)C[C@@H]2N1C(=O)NCc1ccccc1` [Example 5, (6S,9aS)-N-Benzyl-8-((6-(3-((3R)-3,4-dimethylpiperazin-1-yl)azetidin-1-yl)pyridin-2-yl)methyl)-6-((2-fluoro-4-hydroxyphenyl)methyl)-4,7-dioxo-2-(prop-2-en-1-yl)-octahydro-1H-pyrazino[2,1-c][1,2,4]triazine-1-carboxamide], the solubility in data set [1] is reported as 200 µM (≈ 145 µg/mL). For the same compound, in data set [2], the Papp was 1.18 ×10⁻⁶ cm/s. In addition, in data set [3], the IC50 was found to be 82 nM. Further, in data set [4], the “Test Example 2 residual ratio” value is reported as 39%.

With `C=CCN1CC(=O)N2[C@@H](Cc3c(F)cc(O)cc3F)C(=O)N(Cc3cccc(N4CC(N5CCN(CC)[C@@H](C)C5)C4)n3)C[C@@H]2N1C(=O)NCc1ccccc1` [Example 22, (6S,9aS)-N-Benzyl-6-((2,6-difluoro-4-hydroxyphenyl)methyl)-8-((6-(3-((3S)-4-ethyl-3-methylpiperazin-1-yl)azetidin-1-yl)pyridin-2-yl)methyl)-4,7-dioxo-2-(prop-2-en-1-yl)-octahydro-1H-pyrazino[2,1-c][1,2,4]triazine-1-carboxamide], in data set [1], the solubility is recorded as 200 µM (≈ 152 µg/mL). Moreover, the Papp in data set [2] came to 0.57 ×10⁻⁶ cm/s. Further, the IC50 in data set [3] is 180 nM. Moreover, the “Test Example 2 residual ratio” value in data set [4] is listed as 43%.

For `C=CCN1CC(=O)N2[C@@H](Cc3c(F)cc(O)cc3F)C(=O)N(Cc3cccc(N4CC(N5CCN(C(C)C)CC5)C4)n3)C[C@@H]2N1C(=O)NCc1ccccc1` [Example 12, (6S,9aS)-N-Benzyl-6-((2,6-difluoro-4-hydroxyphenyl)methyl)-4,7-dioxo-2-(prop-2-en-1-yl)-8-((6-(3-(4-(propan-2-yl)piperazin-1-yl)azetidin-1-yl)pyridin-2-yl)methyl)-octahydro-1H-pyrazino[2,1-c][1,2,4]triazine-1-carboxamide], the solubility in data set [1] (setting [5]) was determined as 188 µM (≈ 142 µg/mL). Besides, the Papp in data set [2] is 0.87 ×10⁻⁶ cm/s. Moreover, in data set [3], the IC50 stood at 96 nM. Further, the “Test Example 2 residual ratio” value in data set [4] is 38%.

For the compound `C=CCN1CC(=O)N2[C@@H](Cc3ccc(O)cc3)C(=O)N(Cc3cccc(N4CC(N5CCN(C)CC5)C4)n3)C[C@@H]2N1C(=O)NCc1ccccc1` [Example 29, (6S,9aS)-N-Benzyl-6-((4-hydroxyphenyl)methyl)-8-((6-(3-(4-methylpiperazin-1-yl)azetidin-1-yl)pyridin-2-yl)methyl)-4,7-dioxo-2-(prop-2-en-1-yl)-octahydro-1H-pyrazino[2,1-c][1,2,4]triazine-1-carboxamide], the solubility in data set [1] was found to be 200 µM (≈ 139 µg/mL). Also, in data set [3], the IC50 worked out at 470 nM. Besides, in data set [4], the “Test Example 2 residual ratio” value is listed as 63%.
